The results in this text go back to ChEMBL document CHEMBL3808304, “Design, Synthesis, and Biological Evaluation of Indoline and Indole Derivatives as Potent and Selective α1A-Adrenoceptor Antagonists” (J Med Chem, 2016).

One may read the bioavailability as the share of a dose that reaches the circulation, judged against a reference dose that is usually intravenous. Low values mean little systemic uptake, high ones much systemic uptake. Broadly, the Tmax is the time from dosing to the highest level. One may read the half-life as the time in which the quantity being followed falls by half. A high value points to slow decline. One may read the AUC(0-inf) as the area under the concentration-time curve extrapolated to infinity. Low values mean less exposure, high ones more exposure. As usually defined, the MRT is a mean duration of stay, worked out from the concentration-time curve. In general, Cmax refers to the highest concentration seen after dosing.

Holding throughout (type): ADME, organism-based
Series [1] can be described thus: Oral bioavailability in rat at 20 mg/kg. To be noted: in vivo.
Series [2] in a line: Tmax in rat at 10 mg/kg, iv. To be noted: in vivo.
Series [3] in a line: Half life in rat at 10 mg/kg, iv. As to conditions: in vivo.
Series [4] in a line: Tmax in rat at 20 mg/kg, po. As to conditions: in vivo.
Series [5] can be described thus: Apparent clearance in rat at 10 mg/kg, iv. As to conditions: in vivo, read-out: CL(app) (converted).
The nature of series [6]: AUC (0 to infinity) in rat at 10 mg/kg, iv. To be noted: in vivo. Set-up: dose 10 mg/kg, time infinity, route intravenous.
The nature of series [7]: MRT in rat at 20 mg/kg, po. To be noted: in vivo.
The nature of series [8]: AUC (0 to infinity) in rat at 20 mg/kg, po. On the set-up: dose 20 mg/kg, route oral, time infinity. To be noted: in vivo.
The nature of series [9]: Cmax in rat at 10 mg/kg, iv. As to conditions: in vivo. Set-up: dose 10 mg/kg, route intravenous.
Series [10] can be described thus: Half life in rat at 20 mg/kg, po. To be noted: in vivo.
Series [11] in a line: MRT in rat at 10 mg/kg, iv. To be noted: in vivo.
A short description of series [12]: Cmax in rat at 20 mg/kg, po. To be noted: in vivo. Set-up: dose 20 mg/kg, route oral.

Structures are written as SMILES.

`Cc1ccc(OCC(F)(F)F)c(OCCN[C@H](C)Cc2cc(C(N)=O)c3c(ccn3CCCO)c2)c1` displayed a bioavailability in [1] of 7%. Further, the Tmax in series [2] was 4.98 min; in series [4] it was 0.5 h. Also, the half-life was 1.1 h in [3] and 1.22 h in series [10]. In addition, the clearance in series [5] was 37.9 mL/min/kg. Besides, the figures for the AUC(0-inf) in [6] and in [8] were 4400 ng·h/mL and 613 ng·h/mL, respectively. Also, the MRT in series [7] turned out to be 3.54 h; in [11], 2.94 h. The results for the peak concentration (Cmax) in series [9] and in series [12] were 2430 ng/mL and 109 ng/mL, respectively.

In series [1], `C[C@H](Cc1cc2c(c(C(N)=O)c1)N(CCCO)CC2)NCCOc1cc(Cl)ccc1OCC(F)(F)F` registered a bioavailability of 24.3%. In addition, the time to peak (Tmax) in series [2] came out at 4.98 min; in [4] it was 4 h. In addition, the half-life was 1.63 h in [3] and 4.67 h in series [10]. Moreover, in [5], the clearance is 47.5 mL/min/kg. The AUC(0-inf) in series [6] is 3510 ng·h/mL; in [8] it was 1700 ng·h/mL. The mean residence time MRT in series [7] was determined as 6.22 h; in [11], 2.34 h. Also, the Cmax in series [9] was determined as 3000 ng/mL; in series [12] it was 152 ng/mL.
